In EPA's CvTdb concentration-time database:

What was measured:
[1] = test system: rat; assay: concentration in blood after dosing; negative times count back from the end of exposure; details: dosed: trichloroethylene, inhalation, duration: 4 hr
[2] = test system: Rat; assay: concentration in plasma after dosing
[3] = test system: Rat; assay: concentration in brain after dosing; details: oral
[4] = test system: Rat; assay: concentration in kidney after dosing; details: oral
[5] = test system: Rat; assay: concentration in liver after dosing; details: oral

ClC=C(Cl)Cl [trichloroethylene]
[1]
Details	concentration in blood [ng/mL]
-3.5 h, 600 ppm, female, F344, during exposure	16800
-3.459 h, 600.4 ppm, female, F344, during exposure	16200
-0.4732 h, 600.4 ppm, female, F344, during exposure	29000
0.203 h, 50 ppm, male, Sprague Dawley	936
0.2286 h, 50 ppm, male, Sprague Dawley	807
0.2287 h, 50 ppm, male, Sprague Dawley	1080
0.2341 h, 50 ppm, male, Sprague Dawley	1130
0.2372 h, 600 ppm, female, F344	21800
0.2627 h, 600.4 ppm, female, F344	18800
0.4545 h, 50 ppm, male, Sprague Dawley	1170
0.477 h, 50 ppm, male, Sprague Dawley	624
0.4781 h, 50 ppm, male, Sprague Dawley	461
0.4921 h, 50 ppm, male, Sprague Dawley	758
0.4935 h, 600 ppm, female, F344	16100
0.5358 h, 600.4 ppm, female, F344	13400
0.9773 h, 600 ppm, female, F344	4980
0.9775 h, 50 ppm, male, Sprague Dawley	548
0.9966 h, 50 ppm, male, Sprague Dawley	412
1.025 h, 600.4 ppm, female, F344	8560
1.027 h, 50 ppm, male, Sprague Dawley	319
1.739 h, 600 ppm, female, F344	2970
1.944 h, 50 ppm, male, Sprague Dawley	181
1.987 h, 50 ppm, male, Sprague Dawley	389
2.009 h, 50 ppm, male, Sprague Dawley	301
2.054 h, 600.4 ppm, female, F344	3600
4.006 h, 50 ppm, male, Sprague Dawley	217
4.049 h, 50 ppm, male, Sprague Dawley	207
250 s, 600 ppm, female, F344	24700

[1], 50 ppm, male, Sprague Dawley, during exposure
Details	concentration in blood [ng/mL]
-313 s	1440
-72 s	1050
-67 s	1720
-14 s	2070
-3.578 h	917
-3.528 h	611
-3.504 h	680
-3.419 h	998
-3.27 h	824
-3.051 h	1330
-3.011 h	745
-3.008 h	1370
-2.984 h	1290
-2.064 h	1650
-2.027 h	1110
-2.007 h	1380
-1.985 h	1950
-1.07 h	1850
-1.031 h	1920
-1.023 h	1010
-1.012 h	1700

O=S(=O)([O-])C(F)(F)C(F)(F)C(F)(F)C(F)(F)C(F)(F)C(F)(F)C(F)(F)C(F)(F)F [Perfluorooctane Sulfonate]
concentration in plasma [ng/mL], [2], dosed: Perfluorooctane Sulfonate, 2 mg/kg
Details	Female	Male
1 h, iv, F344	4190	–
1 h, iv, Harlan Sprague-Dawley	4680	–
1 h, oral, Harlan Sprague Dawley	2210	–
5 min, iv, F344	4540	–
5 min, iv, Harlan Sprague-Dawley	4940	–
5 min, oral, Harlan Sprague Dawley	45.8	–
6 h, iv, F344	4360	4280
6 h, oral, Harlan Sprague Dawley	3970	–
12 h, iv, F344	4300	3680
12 h, oral, Harlan Sprague Dawley	7550	–
24 h, iv, F344	4320	3470
24 h, iv, Harlan Sprague-Dawley	3660	–
24 h, oral, Harlan Sprague Dawley	4650	–
192 h, iv, F344	4590	–
192 h, iv, Harlan Sprague-Dawley	2490	–
192 h, oral, Harlan Sprague Dawley	3130	–
528 h, iv, F344	3280	1770
528 h, iv, Harlan Sprague-Dawley	2170	–
528 h, oral, Harlan Sprague Dawley	2690	–
864 h, iv, F344	1540	1300
864 h, oral, Harlan Sprague Dawley	1610	–
1200 h, iv, F344	2010	1650
1200 h, iv, Harlan Sprague-Dawley	650	–
1200 h, oral, Harlan Sprague Dawley	1100	–
1704 h, iv, F344	1840	573
1704 h, iv, Harlan Sprague-Dawley	868	–
1848 h, oral, Harlan Sprague Dawley	780	–
2376 h, iv, F344	750	395
2376 h, iv, Harlan Sprague-Dawley	698	–
2520 h, oral, Harlan Sprague Dawley	388	–
3216 h, iv, F344	90.3	–
3360 h, oral, Harlan Sprague Dawley	237	–

dosed: Perfluorooctane Sulfonate
Details	concentration in brain, [3] [ng/g]	concentration in kidney, [4] [ng/g]	concentration in liver, [5] [ng/g]
6 h, 2 mg/kg, Female, Harlan Sprague Dawley	–	4960	24800
6 h, 20 mg/kg, Female, F344	3650	112000	118000
6 h, 20 mg/kg, Male, Harlan Sprague Dawley	5430	85500	135000
24 h, 2 mg/kg, Female, Harlan Sprague Dawley	615	5860	24400
24 h, 20 mg/kg, Female, F344	11500	131000	127000
24 h, 20 mg/kg, Male, Harlan Sprague Dawley	9570	66800	148000
864 h, 2 mg/kg, Female, Harlan Sprague Dawley	–	1750	13200
864 h, 20 mg/kg, Female, F344	3420	53400	72900
864 h, 20 mg/kg, Male, Harlan Sprague Dawley	2750	21500	93900
1848 h, 2 mg/kg, Female, Harlan Sprague Dawley	–	923	5150
1848 h, 20 mg/kg, Female, F344	1270	21400	44900
1848 h, 20 mg/kg, Male, Harlan Sprague Dawley	1560	10500	51000
3360 h, 2 mg/kg, Female, Harlan Sprague Dawley	–	517	8200
3360 h, 20 mg/kg, Male, Harlan Sprague Dawley	672	2460	22900

O=C(O)C(F)(F)C(F)(F)C(F)(F)C(F)(F)C(F)(F)F [Perfluorohexanoic Acid]
concentration in plasma [ng/mL], [2], dosed: Perfluorohexanoic Acid
Details	40 mg/kg	80 mg/kg
0.25 h, iv, Male, F344	21800	–
0.25 h, oral, Male, Harlan Sprague Dawley	27900	92000
0.5 h, iv, Female, Harlan Sprague-Dawley	6320	–
0.5 h, iv, Male, F344	26100	–
0.5 h, oral, Male, Harlan Sprague Dawley	64700	151000
0.75 h, iv, Female, Harlan Sprague-Dawley	1990	–
0.75 h, iv, Male, F344	12600	–
0.75 h, oral, Male, Harlan Sprague Dawley	55100	110000
1 h, iv, Female, Harlan Sprague-Dawley	327	–
1 h, iv, Male, F344	9120	–
1 h, oral, Male, Harlan Sprague Dawley	48300	127000
1.5 h, iv, Male, F344	7580	–
3 h, iv, Male, F344	3740	–
3 h, oral, Male, Harlan Sprague Dawley	34400	60100
3 h, oral, Male, Harlan Sprague Dawley - this seems too small	–	59500
5 min, iv, Male, F344	22900	–
5 min, oral, Male, Harlan Sprague Dawley	14600	59900
6 h, iv, Male, F344	3840	–
6 h, oral, Male, Harlan Sprague Dawley	18300	27700
9 h, oral, Male, Harlan Sprague Dawley	3710	3460
12 h, iv, Male, F344	57.2	–
12 h, oral, Male, Harlan Sprague Dawley	2040	–
24 h, iv, Male, F344	68.1	–
24 h, oral, Male, Harlan Sprague Dawley	222	627

dosed: Perfluorohexanoic Acid, 80 mg/kg
Details	concentration in brain, [3] [ng/g]	concentration in kidney, [4] [ng/g]	concentration in liver, [5] [ng/g]
0.5 h, Female, Harlan Sprague Dawley	1210	55900	32800
0.5 h, Male, Harlan Sprague Dawley	2270	207000	105000
1 h, Female, Harlan Sprague Dawley	1770	98400	42200
1 h, Male, Harlan Sprague Dawley	2670	74100	87200
3 h, Female, Harlan Sprague Dawley	703	45000	8510
3 h, Male, Harlan Sprague Dawley	1170	44300	29600
3 h, Male, Harlan Sprague Dawley - this seems too small	799	56500	36100
6 h, Female, Harlan Sprague Dawley	–	14200	5010
6 h, Male, Harlan Sprague Dawley	495	10900	9650
12 h, Female, Harlan Sprague Dawley	–	663	–
12 h, Male, Harlan Sprague Dawley	–	2880	3140

O=C(O)CCC(F)(F)C(F)(F)C(F)(F)C(F)(F)C(F)(F)C(F)(F)C(F)(F)F [Fluorotelomer acid 7+3]
[2]
Details	concentration in plasma [ng/mL]
0.25 h, dosed: 678-39-7, 12 mg/kg, iv, Male, F344	45.5
0.25 h, dosed: 678-39-7, 40 mg/kg, iv, Male, F344	80.9
0.25 h, dosed: Fluorotelomer alcohol 8+2, 12 mg/kg, oral, Male, Harlan Sprague Dawley	21.6
0.5 h, dosed: 678-39-7, 12 mg/kg, iv, Male, F344	157
0.5 h, dosed: 678-39-7, 40 mg/kg, iv, Female, Harlan Sprague-Dawley	400
0.5 h, dosed: 678-39-7, 40 mg/kg, iv, Male, F344	640
0.5 h, dosed: Fluorotelomer alcohol 8+2, 12 mg/kg, oral, Male, Harlan Sprague Dawley	123
0.75 h, dosed: 678-39-7, 12 mg/kg, iv, Male, F344	242
0.75 h, dosed: 678-39-7, 40 mg/kg, iv, Female, Harlan Sprague-Dawley	773
0.75 h, dosed: Fluorotelomer alcohol 8+2, 12 mg/kg, oral, Male, Harlan Sprague Dawley	405
1 h, dosed: 678-39-7, 12 mg/kg, iv, Male, F344	455
1 h, dosed: 678-39-7, 40 mg/kg, iv, Female, Harlan Sprague-Dawley	1490
1 h, dosed: Fluorotelomer alcohol 8+2, 12 mg/kg, oral, Male, Harlan Sprague Dawley	317
3 h, dosed: 678-39-7, 12 mg/kg, iv, Male, F344	700
3 h, dosed: 678-39-7, 40 mg/kg, iv, Male, F344	2420
3 h, dosed: Fluorotelomer alcohol 8+2, 12 mg/kg, oral, Male, Harlan Sprague Dawley	794
5 min, dosed: 678-39-7, 12 mg/kg, iv, Male, F344	8.32
5 min, dosed: 678-39-7, 40 mg/kg, iv, Male, F344	21.4
6 h, dosed: 678-39-7, 12 mg/kg, iv, Male, F344	762
6 h, dosed: 678-39-7, 40 mg/kg, iv, Male, F344	1630
6 h, dosed: Fluorotelomer alcohol 8+2, 12 mg/kg, oral, Male, Harlan Sprague Dawley	619
9 h, dosed: 678-39-7, 12 mg/kg, iv, Male, F344	110
9 h, dosed: 678-39-7, 40 mg/kg, iv, Female, Harlan Sprague-Dawley	366
9 h, dosed: 678-39-7, 40 mg/kg, iv, Male, F344	481
9 h, dosed: Fluorotelomer alcohol 8+2, 12 mg/kg, oral, Male, Harlan Sprague Dawley	143
12 h, dosed: 678-39-7, 12 mg/kg, iv, Male, F344	63.3
12 h, dosed: 678-39-7, 40 mg/kg, iv, Female, Harlan Sprague-Dawley	130
12 h, dosed: Fluorotelomer alcohol 8+2, 12 mg/kg, oral, Male, Harlan Sprague Dawley	159
24 h, dosed: 678-39-7, 12 mg/kg, iv, Male, F344	98.6
24 h, dosed: 678-39-7, 40 mg/kg, iv, Female, Harlan Sprague-Dawley	498
24 h, dosed: Fluorotelomer alcohol 8+2, 12 mg/kg, oral, Male, Harlan Sprague Dawley	189
48 h, dosed: Fluorotelomer alcohol 8+2, 12 mg/kg, oral, Male, Harlan Sprague Dawley	112
192 h, dosed: 678-39-7, 12 mg/kg, iv, Male, F344	22.5
192 h, dosed: 678-39-7, 40 mg/kg, iv, Male, F344	134
192 h, dosed: Fluorotelomer alcohol 8+2, 12 mg/kg, oral, Male, Harlan Sprague Dawley	42.1
192 h, dosed: Fluorotelomer alcohol 8+2, 24 mg/kg, oral, Male, Harlan Sprague Dawley	53

Details	concentration in brain, [3] [ng/g]	concentration in kidney, [4] [ng/g]	concentration in liver, [5] [ng/g]
0.5 h, dosed: Fluorotelomer alcohol 8+2, 24 mg/kg, Male, Harlan Sprague Dawley	109	224	300
0.5 h, dosed: Fluorotelomer alcohol 8+2, 24 mg/kg, Male, Harlan Sprague Dawley - this seems too small	47.2	129	195
0.5 h, dosed: Fluorotelomer alcohol 8+2, 80 mg/kg, Female, Harlan Sprague Dawley	139	418	1070
1 h, dosed: Fluorotelomer alcohol 8+2, 24 mg/kg, Male, Harlan Sprague Dawley	130	291	784
1 h, dosed: Fluorotelomer alcohol 8+2, 80 mg/kg, Female, Harlan Sprague Dawley	391	883	2270
3 h, dosed: Fluorotelomer alcohol 8+2, 24 mg/kg, Male, Harlan Sprague Dawley	425	1640	3250
3 h, dosed: Fluorotelomer alcohol 8+2, 80 mg/kg, Female, Harlan Sprague Dawley	870	3250	8230
6 h, dosed: Fluorotelomer alcohol 8+2, 24 mg/kg, Male, Harlan Sprague Dawley	365	1200	3160
6 h, dosed: Fluorotelomer alcohol 8+2, 80 mg/kg, Female, Harlan Sprague Dawley	1250	6470	8110
12 h, dosed: Fluorotelomer alcohol 8+2, 24 mg/kg, Male, Harlan Sprague Dawley	222	930	2590
12 h, dosed: Fluorotelomer alcohol 8+2, 80 mg/kg, Female, Harlan Sprague Dawley	632	3150	9470
